Our source for the inhibition and melting point values is patent publication US7781592B2, “Thione derivative, method for the preparation thereof, and pharmaceutical composition containing the same” (CJ Cheiljedang Corporation, priority 2003, dated 2010).

Each structure is given as a SMILES string.

The target of one data set is T1, COX-1 (Homo sapiens, UniProt P23219).
T1 construct: host or cells: U-937 human lymphoma cells
Briefly: Assay for the COX-1 inhibitory activity using U-937 (PGE2 inhibition). The note with it: test compound 1 μM; U-937 human lymphoma cells; arachidonic acid substrate; PGE2 quantified; read-out: Cyclooxygenase (COX) Inhibition (%) COX-1 (1 μM). It counts as cell-based. How it is done: The collected cells were diluted with HBSS (×1, Hank's balanced salt solution) to a concentration of 1×10^6 cells/ml. 1 ml of the dilute cell solution was placed into each well of 12-well plates. 5 μl of 1 μM solution of a test compound in DMSO and 5 μl of DMSO as a control were added to the wells. The wells were incubated in CO2 incubator at 37° C. for 15 minutes. Separately, 10 mM stock solution of arachidonic acid in ethanol was diluted ten times in ethanol to prepare 1 mM solution of arachidonic acid. Arachidonic acid acts as a substrate. 10 μl of the 1 mM solution of arachidonic acid was added to each well and incubated at CO2 incubator at 37° C. for 30 minutes. The cell solution of each well was placed in a centrifuge test tube and centrifuged at 10,000 rpm at 4° C. for 5 minutes. The concentration of PGE2 in the collected cells and the supernatant was quantified by means of a monoclonal kit (Cayman Chemicals). The percentages of PGE2 inhibition in a group of the test compound-treated cells in relation to a group of the DMSO-treated cells were calculated. Based on the calculated values, the COX-1 inhibitory activities were evaluated.
(§1) The percentages of the COX inhibition were calculated according to the following equation: % Inhibition=(concentration of PGE2 in test compound-untreated sample−concentration of PGE2 in test compound-treated sample)/(concentration of PGE2 in test compound-untreated sample)×100

A further data set deals with T2, COX-2 (Mus musculus, UniProt Q05769).
T2 construct: host or cells: RAW 264.7 cells, pre-treated with aspirin, then induced with interferon and LPS
T2 sequence (Q05769 18-604): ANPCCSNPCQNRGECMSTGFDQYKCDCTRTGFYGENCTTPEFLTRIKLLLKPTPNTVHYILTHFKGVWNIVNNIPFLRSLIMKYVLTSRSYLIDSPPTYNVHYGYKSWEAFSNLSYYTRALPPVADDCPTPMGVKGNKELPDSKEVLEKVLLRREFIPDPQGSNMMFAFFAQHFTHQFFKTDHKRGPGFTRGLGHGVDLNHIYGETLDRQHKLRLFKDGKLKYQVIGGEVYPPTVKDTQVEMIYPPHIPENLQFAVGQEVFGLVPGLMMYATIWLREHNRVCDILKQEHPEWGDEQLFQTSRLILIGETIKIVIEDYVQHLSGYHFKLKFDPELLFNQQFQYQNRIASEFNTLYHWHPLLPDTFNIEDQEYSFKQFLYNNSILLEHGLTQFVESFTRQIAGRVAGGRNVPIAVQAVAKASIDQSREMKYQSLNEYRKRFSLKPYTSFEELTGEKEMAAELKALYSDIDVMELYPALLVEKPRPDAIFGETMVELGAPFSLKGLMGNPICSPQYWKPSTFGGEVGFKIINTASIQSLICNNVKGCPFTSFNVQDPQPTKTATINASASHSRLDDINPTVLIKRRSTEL
Briefly: Assay for the COX-2 inhibitory activity using Raw 264.7 cell line (PGE2 inhibition). Type of data set: cell-based. The following applies: RAW264.7; test compound 30 nM; RAW 264.7 cells; aspirin pre-treated, interferon + LPS 18 hours; PGE2 by EIA; read-out: Cyclooxygenase (COX) Inhibition (%) COX-2 (30 nM). On the procedure:
Each well was treated with 250 μM of aspirin and incubated at 37° C. for 2 hours. After the culture media were replaced with new culture media, the new culture media were treated with a test compound (30 nM) and incubated for 30 minutes. Then, each well was treated with interferon ? (100 units/ml) and lipopolysaccharide (LPS, 100 ng/ml) and incubated for 18 hours. The culture media were transferred to other test tubes. The concentration of PGE2 was quantified by means of the EIA kit (Cayman Chemicals).
as §1

T1 sequence (P23219 24-599): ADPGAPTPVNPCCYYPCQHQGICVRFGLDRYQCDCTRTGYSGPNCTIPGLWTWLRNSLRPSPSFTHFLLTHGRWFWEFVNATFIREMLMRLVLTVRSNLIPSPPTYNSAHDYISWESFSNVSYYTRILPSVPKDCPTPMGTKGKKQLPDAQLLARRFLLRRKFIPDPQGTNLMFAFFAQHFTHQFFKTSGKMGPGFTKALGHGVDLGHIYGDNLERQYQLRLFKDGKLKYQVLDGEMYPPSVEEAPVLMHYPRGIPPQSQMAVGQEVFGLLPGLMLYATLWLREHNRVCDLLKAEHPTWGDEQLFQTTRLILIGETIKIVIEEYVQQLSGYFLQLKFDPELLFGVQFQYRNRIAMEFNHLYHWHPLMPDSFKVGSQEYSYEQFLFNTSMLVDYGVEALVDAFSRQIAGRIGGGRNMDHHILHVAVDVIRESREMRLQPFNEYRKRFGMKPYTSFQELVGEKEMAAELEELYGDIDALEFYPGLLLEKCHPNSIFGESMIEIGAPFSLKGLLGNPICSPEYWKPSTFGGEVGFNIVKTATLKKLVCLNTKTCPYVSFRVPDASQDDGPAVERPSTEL

Turning to `CCOc1ccc(-c2c(-c3ccc(S(C)(=O)=O)cc3)ssc2=S)cc1` [Example 39, 4-(4-ethoxyphenyl)-5-(4-methanesulfonylphenyl)-[1,2]dithiol-3-thione], the melting point was in the range of 210 to 212 °C. In addition, the inhibition at 1 µM at COX-1 is 15%. In addition, the inhibition at 0.03 µM on COX-2 came out at 36.6%.

`CS(=O)(=O)c1ccc(-c2ssc(=S)c2-c2ccccc2[N+](=O)[O-])cc1` [Example 54, 5-(4-methanesulfonylphenyl)-4-(2-nitrophenyl)-[1,2]dithiol-3-thione] registered a melting point of 170 to 171 °C. Further, the inhibition at 1 µM on COX-1 came out at 22.4%. The inhibition at 0.03 µM on COX-2 was determined as 26.3%.

Take `CCOc1ccc(-c2c(-c3ccc(S(C)(=O)=O)cc3Cl)ssc2=S)cc1` [Example 70, 5-(2-chloro-4-methanesulfonylphenyl)-4-(4-ethoxyphenyl)-[1,2]dithiol-3-thione]: the melting point was in the range of 190 to 191 °C. In addition, at COX-1, the inhibition at 1 µM was 17.5%. For the same compound, the inhibition at 0.03 µM on COX-2 is 36%.

`CS(=O)(=O)c1ccc(-c2ssc(=S)c2-c2ccccc2Br)cc1` [Example 61, 4-(2-bromophenyl)-5-(4-methanesulfonylphenyl)-[1,2]dithiol-3-thione] came in with a melting point of 179 to 180 °C. Further, the inhibition at 1 µM on COX-1 was determined as 23.3%. Also, on COX-2, the inhibition at 0.03 µM amounted to 20.1%.

Consider `CS(=O)(=O)c1ccc(-c2[nH][nH]c(=S)c2-c2ccc(Cl)c(Cl)c2)cc1` [Example 81, 4-(3,4-dichlorophenyl)-5-(4-methanesulfonylphenyl)-1,2-dihydropyrazole-3-thione], for which the melting point is 192 to 193 °C. For the same compound, the inhibition at 1 µM at COX-1 was 24.9%. On COX-2, the inhibition at 0.03 µM is 24.6%.

`CS(=O)(=O)c1ccc(-c2ssc(=S)c2-c2ccc(F)cc2F)cc1` [Example 63, 4-(2,4-difluorophenyl)-5-(4-methanesulfonylphenyl)-[1,2]dithiol-3-thione] showed a melting point of 148 to 149 °C. Also, on COX-1, the inhibition at 1 µM worked out at 20.3%. At COX-2, the inhibition at 0.03 µM was 21.3%.

With `CC(=O)Oc1ccc(-c2c(-c3ccc(S(C)(=O)=O)c(F)c3)ssc2=S)cc1` [Example 79, Acetic acid 4-[5-(3-fluoro-4-methanesulfonylphenyl)-3-thioxo-3H-[1,2]dithiol-4-yl]-phenyl ester], the melting point lay in the range of 200 to 201 °C. In addition, at COX-1, the inhibition at 1 µM was 19.5%. Moreover, the inhibition at 0.03 µM at COX-2 turned out to be 30.2%.

In turn, `CCCOc1ccc(-c2c(-c3ccc(S(C)(=O)=O)cc3)ssc2=S)cc1` [Example 68, 5-(4-methanesulfonylphenyl)-4-(4-propoxyphenyl)-[1,2]dithiol-3-thione] came in with a melting point of 177 to 178 °C. Further, the inhibition at 1 µM at COX-1 turned out to be 25.5%. Also, the inhibition at 0.03 µM on COX-2 is 22.7%.

As for `CS(=O)(=O)c1ccc(-c2ssc(=S)c2-c2ccncc2)cc1` [Example 47, 5-(4-methanesulfonylphenyl)-4-(pyridine-4-yl)-[1,2]dithiol-3-thione], the melting point was in the range of 245 to 247 °C. Besides, on COX-1, the inhibition at 1 µM was found to be 22.5%. The inhibition at 0.03 µM at COX-2 is 21.4%.

For `COc1ccc(-c2c(-c3ccc(F)c(F)c3)ssc2=S)cc1` [Example 75, 5-(3,4-difluorophenyl)-4-(4-methoxyphenyl)-[1,2]dithiol-3-thione], the melting point fell in the range of 143 to 145 °C. Besides, the inhibition at 1 µM at COX-1 amounted to 26.6%. The inhibition at 0.03 µM at COX-2 was found to be 19.6%.

`CS(=O)(=O)c1ccc(-c2ssc(=S)c2-c2ccc(F)c(F)c2)cc1` [Example 64, 4-(3,4-difluorophenyl)-5-(4-methanesulfonylphenyl)-[1,2]dithiol-3-thione] registered a melting point of 193 to 194 °C. Also, at COX-1, the inhibition at 1 µM is 21.6%. Further, at COX-2, the inhibition at 0.03 µM was 19.8%.

Turning to `CS(=O)(=O)c1ccc(-c2ssc(=S)c2-c2ccc(Br)cc2)cc1` [Example 40, 4-(4-bromophenyl)-5-(4-methanesulfonylphenyl)-[1,2]dithiol-3-thione], the melting point lay within 238 to 240 °C. The inhibition at 1 µM at COX-1 worked out at 18.3%. The inhibition at 0.03 µM at COX-2 worked out at 35.7%.

In turn, `CS(=O)(=O)c1ccc(-c2ssc(=S)c2-c2ccccc2F)cc1` [Example 62, 4-(2-fluorophenyl)-5-(4-methanesulfonylphenyl)-[1,2]dithiol-3-thione] returned a melting point of 173 to 174 °C. The inhibition at 1 µM on COX-1 amounted to 26.6%. Further, at COX-2, the inhibition at 0.03 µM is 21%.

In the case of `CS(=O)(=O)c1ccc(-c2ssc(=S)c2-c2ccccc2Cl)cc1` [Example 57, 4-(2-chlorophenyl)-5-(4-methanesulfonylphenyl)-[1,2]dithiol-3-thione], the melting point was 161 to 162 °C. For the same compound, the inhibition at 1 µM on COX-1 was 20.7%. The inhibition at 0.03 µM on COX-2 is 21.1%.

In turn, `Cc1cc(C)cc(-c2c(-c3ccc(S(C)(=O)=O)cc3)ssc2=S)c1` [Example 52, 4-(3,5-dimethylphenyl)-5-(4-methanesulfonylphenyl)-[1,2]dithiol-3-thione] had a melting point of 164 to 165 °C. Also, the inhibition at 1 µM at COX-1 is 26.6%. Besides, the inhibition at 0.03 µM at COX-2 stood at 19.1%.

For the compound `COc1ccc(-c2c(-c3ccc(S(C)(=O)=O)cc3Cl)ssc2=S)cc1` [Example 73, 5-(2-chloro-4-methanesulfonylphenyl)-4-(4-methoxyphenyl)-[1,2]dithiol-3-thione], the melting point was in the range of 192 to 193 °C. For the same compound, at COX-1, the inhibition at 1 µM was determined as 25.6%. For the same compound, the inhibition at 0.03 µM at COX-2 was determined as 20.1%.

Turning to `CS(=O)(=O)c1ccc(-c2ssc(=S)c2-c2ccc(F)cc2Cl)cc1` [Example 59, 4-(2-chloro-4-fluorophenyl)-5-(4-methanesulfonylphenyl)-[1,2]dithiol-3-thione], the melting point was in the range of 184 to 185 °C. Moreover, at COX-1, the inhibition at 1 µM amounted to 23.2%. Besides, the inhibition at 0.03 µM at COX-2 was determined as 19.7%.

For the compound `CS(=O)(=O)c1ccc(-c2[nH][nH]c(=S)c2-c2ccc(Cl)cc2)cc1` [Example 82, 4-(4-chlorophenyl)-5-(4-methanesulfonylphenyl)-1,2-dihydropyrazole-3-thione], the melting point is 211 to 213 °C. Further, the inhibition at 1 µM on COX-1 stood at 24.3%. The inhibition at 0.03 µM at COX-2 came to 22.2%.

`COc1ccc(-c2c(-c3ccc(S(C)(=O)=O)cc3)ssc2=S)cc1OC` [Example 60, 4-(3,4-dimethoxyphenyl)-5-(4-methanesulfonylphenyl)-[1,2]dithiol-3-thione] registered a melting point of 182 to 183 °C. At COX-1, the inhibition at 1 µM is 26.5%. Also, on COX-2, the inhibition at 0.03 µM is 19.3%.

In turn, `CS(=O)(=O)c1ccc(-c2ssc(=S)c2-c2ccc(Cl)cc2Cl)cc1` [Example 58, 4-(2,4-dichlorophenyl)-5-(4-methanesulfonylphenyl)-[1,2]dithiol-3-thione] showed a melting point of 176 to 177 °C. Besides, the inhibition at 1 µM at COX-1 stood at 24.2%. In addition, at COX-2, the inhibition at 0.03 µM came to 20.1%.

`CC(=O)Oc1ccc(-c2c(-c3ccc(F)c(F)c3)ssc2=S)cc1` [Example 76, Acetic acid 4-[5-(3,4-difluorophenyl)-3-thioxo-3H-[1,2]dithiol-4-yl]-phenyl ester] showed a melting point of 147 to 149 °C. Also, the inhibition at 1 µM at COX-1 amounted to 21.6%. Further, on COX-2, the inhibition at 0.03 µM was found to be 20.3%.
